Experiment in all cases: flow cytometry uptake in Sf9 cells expressing the transporter
In one data set the target is T1, OATP1B3 (Homo sapiens, UniProt Q9NPD5).
T1 sequence (Q9NPD5 1-702): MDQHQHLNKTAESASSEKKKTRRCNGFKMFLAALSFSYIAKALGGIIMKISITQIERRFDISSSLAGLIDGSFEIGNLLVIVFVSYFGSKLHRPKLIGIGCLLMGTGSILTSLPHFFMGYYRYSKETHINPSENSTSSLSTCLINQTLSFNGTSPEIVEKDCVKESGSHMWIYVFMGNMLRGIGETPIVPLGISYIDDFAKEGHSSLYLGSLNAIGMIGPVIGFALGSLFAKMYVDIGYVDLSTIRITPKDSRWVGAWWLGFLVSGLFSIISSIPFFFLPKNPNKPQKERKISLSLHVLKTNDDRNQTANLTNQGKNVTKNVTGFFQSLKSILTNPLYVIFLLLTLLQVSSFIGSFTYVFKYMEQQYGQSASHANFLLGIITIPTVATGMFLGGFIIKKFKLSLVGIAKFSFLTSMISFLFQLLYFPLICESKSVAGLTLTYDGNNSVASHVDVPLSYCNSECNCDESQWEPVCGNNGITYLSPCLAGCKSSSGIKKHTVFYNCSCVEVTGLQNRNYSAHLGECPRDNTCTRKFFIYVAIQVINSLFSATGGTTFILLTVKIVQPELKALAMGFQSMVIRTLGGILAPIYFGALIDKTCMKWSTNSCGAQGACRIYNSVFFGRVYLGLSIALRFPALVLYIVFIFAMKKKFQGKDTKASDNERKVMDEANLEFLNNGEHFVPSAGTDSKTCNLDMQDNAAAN
The format is cell-based.

A further data set deals with T2, OATP1B1 (Homo sapiens, UniProt Q9Y6L6).
T2 sequence (Q9Y6L6 1-691): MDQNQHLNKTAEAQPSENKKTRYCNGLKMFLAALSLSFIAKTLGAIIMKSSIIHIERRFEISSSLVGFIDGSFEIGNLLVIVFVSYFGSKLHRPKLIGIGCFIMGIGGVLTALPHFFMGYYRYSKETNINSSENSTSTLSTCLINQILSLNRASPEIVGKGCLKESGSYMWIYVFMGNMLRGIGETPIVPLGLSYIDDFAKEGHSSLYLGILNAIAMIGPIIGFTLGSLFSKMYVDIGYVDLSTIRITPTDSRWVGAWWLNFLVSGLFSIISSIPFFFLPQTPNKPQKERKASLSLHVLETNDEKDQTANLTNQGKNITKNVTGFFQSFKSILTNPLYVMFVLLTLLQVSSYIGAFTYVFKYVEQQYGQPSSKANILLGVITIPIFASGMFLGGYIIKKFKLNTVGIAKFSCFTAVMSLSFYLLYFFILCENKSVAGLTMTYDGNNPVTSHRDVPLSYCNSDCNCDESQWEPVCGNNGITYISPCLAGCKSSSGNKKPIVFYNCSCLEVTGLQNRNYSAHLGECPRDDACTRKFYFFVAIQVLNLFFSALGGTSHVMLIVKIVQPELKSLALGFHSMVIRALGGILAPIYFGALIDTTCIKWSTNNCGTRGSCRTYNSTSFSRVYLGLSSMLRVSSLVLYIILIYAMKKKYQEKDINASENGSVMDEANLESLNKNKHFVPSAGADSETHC
The format is cell-based.

Substrate in data set [1]: O=C1OC2(c3ccc(O)cc3Oc3cc(O)ccc32)c2ccccc21
The format is cell-based, Homo sapiens.

Turning to `O=C1OC2(c3ccc(O)cc3Oc3cc(O)ccc32)c2ccccc21` [Na-Fluo, sodium fluorescein], the Km (usually the concentration of substrate that gives half-maximal velocity) on OATP1B3 worked out at 38.6 µM.

In the case of fluorescein-methotrexate [Fl-MTX], the Km is 0.23 µM at OATP1B1 and 0.53 µM on OATP1B3.

B1: OATP1B1 (Homo sapiens) (protein)
chain: T2 sequence (Q9Y6L6 1-691)
Turning to B1, the Km in data set [1] was 25.73 µM.
